Target: T1, full-length beta-Catenin (Uniprot ID P35222) (Homo sapiens, UniProt P35222)
T1 construct: 10 nM full-length beta-Catenin (Uniprot ID P35222)
T1 sequence (P35222 1-781): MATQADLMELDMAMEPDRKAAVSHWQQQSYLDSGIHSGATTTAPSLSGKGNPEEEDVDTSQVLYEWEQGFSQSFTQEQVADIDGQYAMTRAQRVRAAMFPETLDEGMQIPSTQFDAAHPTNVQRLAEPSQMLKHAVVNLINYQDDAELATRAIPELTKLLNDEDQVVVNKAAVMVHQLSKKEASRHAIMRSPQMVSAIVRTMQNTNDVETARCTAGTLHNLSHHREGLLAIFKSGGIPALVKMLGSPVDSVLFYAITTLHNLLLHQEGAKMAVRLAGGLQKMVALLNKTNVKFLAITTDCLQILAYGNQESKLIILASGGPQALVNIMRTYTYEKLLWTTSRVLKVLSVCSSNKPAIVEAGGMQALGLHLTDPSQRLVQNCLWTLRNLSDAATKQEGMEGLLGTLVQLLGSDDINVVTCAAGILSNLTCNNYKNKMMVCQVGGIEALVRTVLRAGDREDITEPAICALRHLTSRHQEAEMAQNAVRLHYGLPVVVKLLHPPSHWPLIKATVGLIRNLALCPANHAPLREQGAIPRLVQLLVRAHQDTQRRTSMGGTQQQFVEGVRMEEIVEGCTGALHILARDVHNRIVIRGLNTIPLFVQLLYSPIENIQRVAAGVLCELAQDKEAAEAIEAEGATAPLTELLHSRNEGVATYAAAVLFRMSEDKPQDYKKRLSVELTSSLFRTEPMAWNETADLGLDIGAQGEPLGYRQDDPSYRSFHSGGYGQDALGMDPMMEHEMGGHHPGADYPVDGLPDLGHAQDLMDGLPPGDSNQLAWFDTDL
Test: Fluorescence polarization IC50 (beta-catenin / 5FAM-TCF4 10-53 competition)
Format: binding
Conditions: fluorescence polarization; read-out: beta-Catenin FP IC50

| Structure (SMILES) | IC50 |
| --- | --- |
| CC(=O)N1CCC[C@]12CC=CCCCC1(CCCC=CCCCOC(=O)N3CC[C@@](C(=O)N[C@@H](Cc4ccccc4)C(=O)N[C@@H](Cc4csc5ccccc45)C(=O)N[C@@H](CCC(N)=O)C(N)=O)(C3)NC(=O)[C@H](Cc3c[nH]cn3)NC(=O)[C@H](Cc3ccccc3)NC(=O)[C@H](C)NC(=O)[C@H](C)NC(=O)[C@H](CCC(N)=O)NC(=O)[C@H](CC(=O)O)NC1=O)NC(=O)[C@H](CC(C)(C)C)NC(=O)[C@H](CCO)NC2=O (stereo partly drawn) [I-2439, Ac-PL3-Hse-Npg-B5-Asp-Gln-Ala-Ala-Phe-His-PyrS2-Phe-BztA-Gln-NH2] | 2.76 µM |
| CC(=O)N1CCC[C@]12CC=CCCCC1(CCCC=CCCCOC(=O)N3CC[C@@](C(=O)N[C@@H](Cc4ccccc4)C(=O)N[C@@H](Cc4csc5ccccc45)C(=O)N[C@@H](CCC(N)=O)C(N)=O)(C3)NC(=O)[C@H](Cc3c[nH]cn3)NC(=O)[C@H](Cc3ccccc3)NC(=O)[C@H](C)NC(=O)[C@H](C)NC(=O)[C@H](CCC(N)=O)NC(=O)[C@H](CC(=O)O)NC1=O)NC(=O)[C@H](CC(C)(C)C)NC(=O)[C@H](CC(N)=O)NC2=O (stereo partly drawn) [I-2440, Ac-PL3-Asn-Npg-B5-Asp-Gln-Ala-Ala-Phe-His-PyrS2-Phe-BztA-Gln-NH2] | 0.36 µM |
| CCCc1cn(CCCC[C@@H](NC(=O)[C@H](CO)NC(=O)[C@H](Cc2csc3ccccc23)NC(=O)[C@H](Cc2ccccc2C(F)(F)F)NC(=O)[C@]23CCN(C2)C(=O)OCCCC=CCCCC2(CCCC=CC[C@]4(CCCN4C(C)=O)C(=O)N[C@@H](CC(=O)O)C(=O)N[C@@H](CC(C)(C)C)C(=O)N2)C(=O)N[C@@H](CC(=O)O)C(=O)N[C@@H](Cc2cccc(C(=O)O)c2)C(=O)N[C@@H](C)C(=O)N[C@@H](C)C(=O)N[C@@H](Cc2ccccc2)C(=O)N[C@@H](CC(C)C)C(=O)N3)C(N)=O)nn1 (stereo partly drawn) [I-2444, Ac-PL3-Asp-Npg-B5-Asp-3COOHF-Ala-Ala-Phe-Leu-PyrS2-2F3MeF-BztA-Ser-[3C]TriAzdLys-NH2] | 0.121 µM |
| CC(=O)N1CCC[C@]12CC=CCCCC1(CCCC=CCCCOC(=O)N3CC[C@@](C(=O)N[C@@H](Cc4ccccc4)C(=O)N[C@@H](Cc4csc5ccccc45)C(=O)N[C@@H](CCC(N)=O)C(N)=O)(C3)NC(=O)[C@H](CC(C)C)NC(=O)[C@H](Cc3ccccc3)NC(=O)[C@H](C)NC(=O)[C@H](CCO)NC(=O)[C@H]([C@@H](C)O)NC(=O)[C@H](CC(=O)O)NC1=O)NC(=O)[C@H](CC1CCCCC1)NC(=O)[C@H](CC(N)=O)NC2=O (stereo partly drawn) [I-2447, Ac-PL3-Asn-Cha-B5-Asp-Thr-Hse-Ala-Phe-Leu-PyrS2-Phe-BztA-Gln-NH2] | 3.25 µM |

Continued, values first:

| IC50 | Structure (SMILES) |
| --- | --- |
| 0.282 µM | CC(=O)N1CCC[C@]12CC=CCCCC1(CCCC=CCCCOC(=O)N3CC[C@@](C(=O)N[C@@H](Cc4ccccc4)C(=O)N[C@@H](Cc4csc5ccccc45)C(=O)N[C@@H](CCC(N)=O)C(N)=O)(C3)NC(=O)[C@H](CC(C)C)NC(=O)[C@H](Cc3ccccc3)NC(=O)[C@H](C)NC(=O)[C@H](C)NC(=O)[C@H](Cc3c[nH]cn3)NC(=O)[C@H](CC(=O)O)NC1=O)NC(=O)[C@H](CC(C)(C)C)NC(=O)[C@H](CC(N)=O)NC2=O (stereo partly drawn) [I-2442, Ac-PL3-Asn-Npg-B5-Asp-His-Ala-Ala-Phe-Leu-PyrS2-Phe-BztA-Gln-NH2] |
| 6.67 µM | CC(=O)N1CCC[C@]12CC=CCCCC1(CCCC=CCCCOC(=O)N3CC[C@@](C(=O)N[C@@H](Cc4ccccc4)C(=O)N[C@@H](Cc4csc5ccccc45)C(=O)N[C@@H](CCC(N)=O)C(N)=O)(C3)NC(=O)[C@H](CC(C)C)NC(=O)[C@H](Cc3ccccc3)NC(=O)[C@H](C)NC(=O)[C@H](C)NC(=O)[C@H](CCC(N)=O)NC(=O)[C@H](CC(=O)O)NC1=O)NC(=O)[C@H](CC(C)(C)C)NC(=O)[C@H](CCO)NC2=O (stereo partly drawn) [I-2443, Ac-PL3-Hse-Npg-B5-Asp-Gln-Ala-Ala-Phe-Leu-PyrS2-Phe-BztA-Gln-NH2] |

— patent US20240116985A1, “STAPLED PEPTIDES AND METHODS THEREOF” (priority 2020, published 2024)
